In ChEMBL document CHEMBL3244295, “A ureido group containing analogue of oxytocin comprising eight amino acid residues” (J Med Chem, 1978):
Residues, ends and D or L forms follow the SMILES beside them.

Experiments:
Oxytocin-like receptor = target: T1, Oxytocin-like receptor (Gallus gallus, UniProt Q5D7U5); assay: Antagonist activity at oxytocin receptor in conscious chicken assessed as inhibition of oxytocin-induced vaspdepressor response; details: read-out: pA2 (converted)
T1 sequence (Q5D7U5 whole entry): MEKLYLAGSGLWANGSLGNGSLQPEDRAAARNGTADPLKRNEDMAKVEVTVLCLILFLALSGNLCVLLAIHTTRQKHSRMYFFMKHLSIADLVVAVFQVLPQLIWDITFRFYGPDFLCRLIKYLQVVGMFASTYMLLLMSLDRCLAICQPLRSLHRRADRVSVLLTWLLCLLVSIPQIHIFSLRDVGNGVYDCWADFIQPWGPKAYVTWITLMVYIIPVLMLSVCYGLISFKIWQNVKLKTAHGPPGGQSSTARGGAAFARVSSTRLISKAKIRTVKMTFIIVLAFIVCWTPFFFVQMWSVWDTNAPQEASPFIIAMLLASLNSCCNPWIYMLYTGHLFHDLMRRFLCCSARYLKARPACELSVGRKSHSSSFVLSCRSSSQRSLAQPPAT

Rattus norvegicus = assay: Antidiuretic activity in anesthetized rat assessed per mg; assay type: functional, Urine
[1] = Uterotonic activity in virgin rat uterus relative to oxytocin; assay type: functional
[2] = Uterotonic activity in virgin rat uterus; assay type: functional

Kb (Oxytocin-like receptor) [nM]	SMILES	Activity (Rattus norvegicus) [U]	Activity [1] [%]	Activity [2] [U/mg]
31.6	CC[C@H](C)[C@@H]1NC(=O)[C@H](Cc2ccc(O)cc2)NC(=O)[C@@H](N)C(C)(C)SSC[C@@H](C(=O)N2CCC[C@H]2C(=O)N[C@@H](CC(C)C)C(=O)NCC(N)=O)NC(=O)[C@H](CC(N)=O)NC(=O)[C@H](CCC(N)=O)NC1=O	–	–	–
53.7	[H][C@@]1([C@@H](C)CC)NC(=O)[C@H](Cc2ccc(O)cc2)NC(=O)NCCCC[C@@H](C(=O)N2CCC[C@H]2C(=O)N[C@@H](CC(C)C)C(=O)NCC(N)=O)NC(=O)[C@H](CC(N)=O)NC(=O)[C@H](CCC(N)=O)NC1=O (HELM PEPTIDE1{Y.I.Q.N.K.P.L.G.[am]}|CHEM1{[O=C([*:1])[*:2]]}$PEPTIDE1,CHEM1,1:R1-1:R1|PEPTIDE1,CHEM1,5:R3-1:R2$$$V2.0)	<0.05	0.8	3.9
